Experimental findings from patent US20250332176A1, “TREATMENT FOR FIBROSIS AND INHIBITION OF FIBROSIS” (GALMED RESEARCH AND DEVELOPMENT LTD, priority 2022, published 2025) are described below.

This test concerns Male C57BL/12 mice. Description: Bleomycin (BLM)-induced pulmonary fibrosis model. It counts as in vivo. To be noted: bleomycin 1.5 U/kg intratracheal, prophylactic, day 0→21. As for the experimental part:
The following model was employed: • Male C57BL/12 mice,22-26 g • Induction by administration of Bleomycin (1.5 U/kg), intratracheal • Ref. Comp.: Pirfenidone, 100 mg/kg, p.o., BID • Treatment Mode: Prophylactic (from day 0→21)
Pulmonary fibrosis was induced by bleomycin (BLM) and treated with aramchol (meglumine salt). As a reference, results for the known anti-idiophatic pulmonary fibrosis agent pirfenidone are also presented, in FIGS. 26A-26B, where hydroxyproline was used as biomarker for fibrosis (hydroxyproline use as idiophatic pulmonary fibrosis biomarker is disclosed in “Lung fibrosis is ameliorated by pirfenidone fed in diet after the second dose in a three-dose bleomycin-hamster model”, Iyer, Swarnalatha N.; Margolin, S. B.; Hyde, D. M.; Giri, S. N.; Experimental Lung Research (1998), 24(1), 119-132; and “Simple determination of L-hydroxyproline in idiopathic pulmonary fibrosis lung tissues of rats using non-extractive high-performance liquid chromatography coupled with fluorescence detection after pre-column derivatization with novel synthetic 9-acetylimidazol-carbazole”, Ren, Y.; Zhao, J.; Shi, Y.; Chen, C.; Chen, X.; Lv, C.; Journal of Pharmaceutical and Biomedical Analysis 2017, 142, 1-6).

In the case of `CCCCCCCCCCCCCCCCCCCC(=O)N[C@H]1CC[C@@]2(C)[C@@H](C1)C[C@@H](O)[C@@H]1[C@@H]2C[C@H](O)[C@]2(C)[C@@H]([C@H](C)CCC(=O)O)CC[C@@H]12` [aramchol], the “histopathology of the lungs (H&E, COL1A1, aSMA; FIG. 27)” value was “very similar to the one of pirfenidone”. For the same compound, the “Ashcroft score, COL1A1 and aSMA quantification (FIGS. 28A-28E)” value (compared to pirfenidone) is “treats the fibrosis in better (higher) extent and has more significant effect”.
Regarding `Cc1ccc(=O)n(-c2ccccc2)c1` [pirfenidone, reference compound], the “histopathology of the lungs (H&E, COL1A1, aSMA; FIG. 27)” value is reported as “much more similar to the one without the fibrosis”.
